Source: patent US9884842B2, “Combretastatin analogs” (The Board of Trustees of the University of Arkansas, priority 2013, dated 2018)
Read-outs that look alike come from different tables or passages of the source.

Tests used:
ACHN = assay: NCI growth inhibition and cytotoxicity screen, Renal Cancer panel; conditions: Homo sapiens; for CC50: read-out: LC50
NCI-H322M = assay: NCI growth inhibition and cytotoxicity screen, Lung Cancer panel; conditions: Homo sapiens; for CC50: read-out: LC50
HL-60(TB) = assay: cells; conditions: Homo sapiens; for GI50: HL-60; for CC50: HL-60, read-out: LC50
HS 578T = assay: NCI growth inhibition and cytotoxicity screen, Breast Cancer panel; conditions: Homo sapiens; for CC50: read-out: LC50
MALME-3M = assay: NCI growth inhibition and cytotoxicity screen, Melanoma panel; conditions: Homo sapiens; for CC50: read-out: LC50
COLO 205 = assay: NCI growth inhibition and cytotoxicity screen, Colon Cancer panel; conditions: Homo sapiens; for CC50: COLO 205, read-out: LC50
HCC-2998 = assay: as above; conditions: Homo sapiens; for GI50: HCC 2998; for CC50: HCC 2998, read-out: LC50
CCRF-CEM = assay: NCI growth inhibition and cytotoxicity screen, Leukemia panel; conditions: Homo sapiens; for CC50: read-out: LC50
MDA-MB-231/ATCC = assay: NCI growth inhibition and cytotoxicity screen, Breast Cancer panel; conditions: Homo sapiens; for GI50: MDA-MB-231; for CC50: MDA-MB-231, read-out: LC50
SK-MEL-5 = assay: NCI growth inhibition and cytotoxicity screen, Melanoma panel; conditions: Homo sapiens; for GI50: SK-MEL-5; for CC50: SK-MEL-5, read-out: LC50
SW-620 = assay: NCI growth inhibition and cytotoxicity screen, Colon Cancer panel; conditions: Homo sapiens; for GI50: SW-620; for CC50: SW-620, read-out: LC50
NCI-H522 = assay: NCI growth inhibition and cytotoxicity screen, Lung Cancer panel; format: cell-based; conditions: Homo sapiens; for CC50: read-out: LC50 (the source's name)
SN12C = assay: NCI growth inhibition and cytotoxicity screen, Renal Cancer panel; conditions: Homo sapiens; for CC50: read-out: LC50
DU-145 = assay: NCI growth inhibition and cytotoxicity screen, Prostate Cancer panel; conditions: Homo sapiens; for GI50: DU-145; for CC50: DU-145, read-out: LC50
SR = assay: NCI growth inhibition and cytotoxicity screen, Leukemia panel; conditions: Homo sapiens; for CC50: read-out: LC50
HOP-62 = assay: NCI growth inhibition and cytotoxicity screen, Lung Cancer panel; conditions: Homo sapiens; for GI50: HOP-62; for CC50: HOP-62, read-out: LC50
PC-3 = assay: NCI growth inhibition and cytotoxicity screen, Prostate Cancer panel; conditions: Homo sapiens; for GI50: PC-3; for CC50: PC-3, read-out: LC50
OVCAR-8 = assay: NCI growth inhibition and cytotoxicity screen, Ovarian Cancer panel; conditions: Homo sapiens; for GI50: OVCAR-8; for CC50: OVCAR-8, read-out: LC50
SF-295 = assay: NCI growth inhibition and cytotoxicity screen, CNS Cancer panel; format: cell-based; conditions: Homo sapiens; for CC50: read-out: LC50 (the source's name)
[1] = tested on: full panel of 60 different cancer cell lines; assay: NCI five dose screen, full panel summary; format: cell-based, human; conditions: for GI50: Homo sapiens
OVCAR-4 = assay: NCI growth inhibition and cytotoxicity screen, Ovarian Cancer panel; conditions: Homo sapiens; for GI50: OVCAR-4; for CC50: OVCAR-4, read-out: LC50
MOLT-4 = assay: NCI growth inhibition and cytotoxicity screen, Leukemia panel; conditions: Homo sapiens; for GI50: MOLT-4; for CC50: MOLT-4, read-out: LC50
NCI-H23 = assay: NCI growth inhibition and cytotoxicity screen, Lung Cancer panel; conditions: Homo sapiens; for GI50: NCI-H23; for CC50: NCI-H23, read-out: LC50
RXF 393 = assay: NCI growth inhibition and cytotoxicity screen, Renal Cancer panel; conditions: Homo sapiens; for GI50: RXF 393; for CC50: RXF 393, read-out: LC50
HCT-15 = assay: NCI growth inhibition and cytotoxicity screen, Colon Cancer panel; conditions: Homo sapiens; for GI50: HCT-15; for CC50: HCT-15, read-out: LC50
UO-31 = assay: NCI growth inhibition and cytotoxicity screen, Renal Cancer panel; conditions: Homo sapiens; for GI50: UO-31; for CC50: UO-31, read-out: LC50
MDA-MB-468 = assay: cells; conditions: Homo sapiens; for GI50: MDA-MB-468; for CC50: MDA-MB-468, read-out: LC50
HCT-116 = assay: NCI growth inhibition and cytotoxicity screen, Colon Cancer panel; conditions: Homo sapiens; for GI50: HCT-116; for CC50: HCT-116, read-out: LC50
MDA-MB-435 = assay: NCI growth inhibition and cytotoxicity screen, Melanoma panel; conditions: Homo sapiens; for GI50: MDA-MB-435; for CC50: MDA-MB-435, read-out: LC50
[2] = Table 2, cell line NCI-H522 (Lung Cancer)
[3] = Table 2, cell line SF-295 (CNS Cancer)
[4] = NCI-H522, Table 1, cell line NCIH522 (Lung Cancer)
[5] = SF-295, Table 1, cell line SF-2395 (CNS Cancer)

COc1cc(/C(C#N)=C/c2cnc3ccccc3c2)cc(OC)c1OC [PNR-5-10, (Z)-3-(quinolin-3-yl)-2-(3,4,5-trimethoxyphenyl)acrylonitrile]
GI50 (ACHN): 911 nM | CC50 (ACHN): > 100 µM | GI50 (NCI-H322M): 27.4 µM | CC50 (NCI-H322M): > 100 µM | GI50 (HL-60(TB)): 329 µM | CC50 (HL-60(TB)): > 100 µM | GI50 (HS 578T): 1310 nM | CC50 (HS 578T): > 100 µM | GI50 (MALME-3M): 691 nM | CC50 (MALME-3M): > 100 µM | CC50 (COLO 205): 9.44 µM | GI50 (HCC-2998): 2010 nM | CC50 (HCC-2998): > 100 µM | GI50 (CCRF-CEM): 1380 nM | CC50 (CCRF-CEM): > 100 µM | GI50 (MDA-MB-231/ATCC): 2830 nM | CC50 (MDA-MB-231/ATCC): > 100 µM | GI50 (SK-MEL-5): 410 nM | CC50 (SK-MEL-5): > 100 µM | GI50 (SW-620): 420 nM | CC50 (SW-620): > 100 µM | GI50 (NCI-H522; [2]): 299 nM | CC50 (NCI-H522; [2]): > 100 µM | GI50 (SN12C): 1940 nM | CC50 (SN12C): > 100 µM | GI50 (DU-145): 1510 nM | CC50 (DU-145): > 100 µM | GI50 (SR): 569 nM | CC50 (SR): > 100 µM | GI50 (HOP-62): 10.3 µM | CC50 (HOP-62): > 100 µM | GI50 (PC-3): 1080 nM | CC50 (PC-3): > 100 µM | GI50 (OVCAR-8): 3.41 µM | CC50 (OVCAR-8): > 100 µM | GI50 (SF-295; [3]): 556 nM | CC50 (SF-295; [3]): > 100 µM | GI50 ([1]; range over the potently inhibited cell lines, read-out: GI50 ranging (potently inhibited cancer cell lines)): 227 to 911 nM | GI50 ([1]; read-out: average GI50 value on all the cancer cell lines): 2490 nM | potent growth inhibition on % of the cancer cell lines ([1]; share of the cancer cell lines potently inhibited): 47% | GI50 (OVCAR-4): 13.8 µM | CC50 (OVCAR-4): > 100 µM | GI50 (MOLT-4): 3200 nM | CC50 (MOLT-4): > 100 µM | GI50 (NCI-H23): 2930 nM | CC50 (NCI-H23): > 100 µM | GI50 (RXF 393): 579 nM | CC50 (RXF 393): > 100 µM | GI50 (HCT-15): 1080 nM | CC50 (HCT-15): > 100 µM | GI50 (UO-31): 580 nM | CC50 (UO-31): > 100 µM | GI50 (MDA-MB-468): 870 nM | CC50 (MDA-MB-468): > 100 µM | GI50 (HCT-116): 464 nM | CC50 (HCT-116): > 100 µM | GI50 (MDA-MB-435): 227 nM | CC50 (MDA-MB-435): > 100 µM

COc1cc(OC)cc(/C(C#N)=C/c2c[nH]c3ccccc23)c1 [Formula (I)(b)]
GI50 (ACHN): > 100 nM | CC50 (ACHN): > 100 µM | CC50 (NCI-H322M): > 100 µM | GI50 (HL-60(TB)): 0.0312 µM | CC50 (HL-60(TB)): > 100 µM | GI50 (HS 578T): > 100 nM | CC50 (HS 578T): > 100 µM | CC50 (MALME-3M): > 100 µM | GI50 (COLO 205; COLO 205): 47.7 nM | CC50 (COLO 205): 15.2 µM | GI50 (HCC-2998): > 100 nM | CC50 (HCC-2998): > 100 µM | GI50 (CCRF-CEM): 42.4 nM | CC50 (CCRF-CEM): > 100 µM | GI50 (MDA-MB-231/ATCC): > 100 nM | CC50 (MDA-MB-231/ATCC): > 100 µM | GI50 (SK-MEL-5): 48.6 nM | CC50 (SK-MEL-5): > 100 µM | GI50 (SW-620): 44.1 nM | CC50 (SW-620): > 100 µM | GI50 (NCI-H522; [4]): 27.1 nM | CC50 (NCI-H522; [4]): > 100 µM | GI50 (SN12C): 77.9 nM | CC50 (SN12C): > 100 µM | GI50 (DU-145): > 100 nM | CC50 (DU-145): > 100 µM | GI50 (SR): 33.4 nM | CC50 (SR): > 100 µM | GI50 (HOP-62): > 0.1 µM | CC50 (HOP-62): > 100 µM | GI50 (PC-3): 75.5 nM | CC50 (PC-3): > 100 µM | GI50 (OVCAR-8): > 0.1 µM | CC50 (OVCAR-8): > 100 µM | GI50 (SF-295; [5]): 45.3 nM | CC50 (SF-295; [5]): > 100 µM | GI50 (OVCAR-4): > 0.1 µM | CC50 (OVCAR-4): > 100 µM | GI50 (MOLT-4): 49.1 nM | CC50 (MOLT-4): > 100 µM | GI50 (NCI-H23): > 100 nM | CC50 (NCI-H23): > 100 µM | GI50 (RXF 393): 83.7 nM | CC50 (RXF 393): > 100 µM | GI50 (HCT-15): 53.5 nM | CC50 (HCT-15): > 100 µM | GI50 (UO-31): > 100 nM | CC50 (UO-31): > 100 µM | GI50 (MDA-MB-468): > 100 nM | CC50 (MDA-MB-468): > 100 µM | GI50 (HCT-116): 42.5 nM | CC50 (HCT-116): > 100 µM | GI50 (MDA-MB-435): 20.3 nM | CC50 (MDA-MB-435): > 100 µM
